What was measured:
Zymoseptoria tritici = assay: Leaf blotch of wheat (SEPTTR) disease control on wheat seedlings; format: in vivo; design: key to SEPTTR 1DP, HV activity at 100 ppm (% control rating) / SEPTTR 3DC, HV activity at 100 ppm (% control rating) / SEPTTR disease control, 1DP / SEPTTR disease control, 3DC / SEPTTR 1DP disease control rating, HV activity / SEPTTR 3DC disease control rating, HV activity / SEPTTR 3DC, LV activity at 125.1 g/H (% Control rating) / SEPTTR 1DP, LV activity at 125.1 g/H (% Control rating) / SEPTTR 1DP disease control rating, LV activity at 125.1 g/H / SEPTTR 3DC disease control rating, LV activity at 125.1 g/H / SEPTTR 3DC disease control rating, HV activity at 100 ppm / SEPTTR 1DP disease control rating, HV activity at 100 ppm / HV activity at 100 ppm SEPTTR 3DC (disease control rating) / HV activity at 100 ppm SEPTTR 1DP (disease control rating) / LV activity at 125.1 g/H SEPTTR 1DP (disease control rating) / LV activity at 125.1 g/H SEPTTR 3DC (disease control rating): A: > 80; B: ≤ 80; C: Not Tested; D: No Activity Observed in the Reported Assay; settings: for SEPTTR 1DP disease control rating, HV activity at 100 ppm / SEPTTR 3DC disease control rating, HV activity at 100 ppm: high volume application; for SEPTTR 1DP disease control rating, HV activity at 100 ppm: 1 day protectant; for SEPTTR 3DC disease control rating, HV activity at 100 ppm: 3 day curative
Protocol: (§1) All fungicides were evaluated using the aforementioned method for their activity vs. all target diseases, unless stated otherwise. Wheat leaf blotch and brown rust activity were also evaluated using track spray applications, in which case the fungicides were formulated as EC formulations, containing 0.1% Trycol 5941 in the spray solutions. Wheat plants (variety Yuma) were grown from seed in a greenhouse in 50% mineral soil/50% soil-less Metro mix until the first leaf was fully emerged, with 7-10 seedlings per pot. These plants were inoculated with an aqueous spore suspension of Zymoseptoria tritici either prior to or after fungicide treatments. After inoculation the plants were kept in 100% relative humidity (one day in a dark dew chamber followed by two to three days in a lighted dew chamber at 20° C.) to permit spores to germinate and infect the leaf. The plants were then transferred to a greenhouse set at 20° C. for disease to develop. When disease symptoms were fully expressed on the 1st leaves of untreated plants, infection levels were assessed on a scale of 0 to 100 percent disease severity. Percent disease control was calculated using the ratio of disease severity on treated plants relative to untreated plants.

Puccinia triticina = assay: Wheat brown rust (PUCCRT) disease control on wheat seedlings; format: in vivo; design: key to PUCCRT 3DC, HV activity at 100 ppm (% control rating) / PUCCRT disease control, 3DC / PUCCRT 1DP disease control rating, HV activity / PUCCRT 3DC disease control rating, HV activity / PUCCRT 3DC, LV activity at 125.1 g/H (% Control rating) / PUCCRT 1DP, LV activity at 125.1 g/H (% Control rating) / PUCCRT 3DC disease control rating, LV activity at 125.1 g/H / PUCCRT 1DP disease control rating, LV activity at 125.1 g/H / PUCCRT 3DC disease control rating, HV activity at 100 ppm / PUCCRT 1DP disease control rating, HV activity at 100 ppm / HV activity at 100 ppm PUCCRT 3DC (disease control rating) / LV activity at 125.1 g/H PUCCRT 1DP (disease control rating) / LV activity at 125.1 g/H PUCCRT 3DC (disease control rating): A: > 80; B: ≤ 80; C: Not Tested; D: No Activity Observed in the Reported Assay; settings: for PUCCRT 1DP disease control rating, HV activity at 100 ppm / PUCCRT 3DC disease control rating, HV activity at 100 ppm: high volume application; for PUCCRT 1DP disease control rating, HV activity at 100 ppm: 1 day protectant; for PUCCRT 3DC disease control rating, HV activity at 100 ppm: 3 day curative
Protocol: as §1, with “plants. Example B: Evaluation of Fungicidal Activity: Wheat Brown Rust (Puccinia triticina; Synonym: Puccinia recondita f. sp. Tritici; Bayer Code PUCCRT) Wheat plants (variety Yuma) were grown from seed in a greenhouse in 50% mineral soil/50% soil-less Metro mix until the first leaf was fully emerged, with 7-10 seedlings per pot. These plants were inoculated with an aqueous spore suspension of Puccinia triticina either prior to or after fungicide treatments. […] The plants were then transferred to a greenhouse set at 24° C. for disease to develop. Fungicide formulation, application and disease assessment followed the procedures as described in the Example A.” for “plants.”

[1] = low volume application, 125.1 g/H, 1 Day Protectant
[2] = low volume application, 125.1 g/H, 3 Day Curative

CC[C@H](Cc1ccc(F)cc1)[C@@H](Oc1ccccc1)[C@H](C)OC(=O)[C@H](C)NC(=O)c1nccc(OC)c1OC(=O)C(C)C [Cmpd 473]
SEPTTR 1DP, LV activity at 125.1 g/H (% Control rating) (Zymoseptoria tritici; [1]): B (≤ 80)
SEPTTR 3DC, LV activity at 125.1 g/H (% Control rating) (Zymoseptoria tritici; [2]): B (≤ 80)
PUCCRT 1DP, LV activity at 125.1 g/H (% Control rating) (Puccinia triticina; [1]): A (> 80)
PUCCRT 3DC, LV activity at 125.1 g/H (% Control rating) (Puccinia triticina; [2]): D

COc1ccnc(C(=O)N[C@@H](C)C(=O)O[C@@H](C)[C@H](Oc2cccc(F)c2)c2cccc(-c3ccccc3)c2)c1O [Cmpd 814]
SEPTTR 1DP disease control rating, HV activity at 100 ppm (Zymoseptoria tritici): D
SEPTTR 3DC disease control rating, HV activity at 100 ppm (Zymoseptoria tritici): D
PUCCRT 1DP disease control rating, HV activity at 100 ppm (Puccinia triticina): B (≤ 80)
PUCCRT 3DC disease control rating, HV activity at 100 ppm (Puccinia triticina): D

COc1ccnc(C(=O)NC(C)C(=O)OC(C)C(Oc2ccccc2)c2ccccc2)c1O (stereo not drawn) [Cmpd 818]
SEPTTR 1DP disease control rating, HV activity at 100 ppm (Zymoseptoria tritici): A (> 80)
SEPTTR 3DC disease control rating, HV activity at 100 ppm (Zymoseptoria tritici): A (> 80)
PUCCRT 1DP disease control rating, HV activity at 100 ppm (Puccinia triticina): A (> 80)
PUCCRT 3DC disease control rating, HV activity at 100 ppm (Puccinia triticina): D

COc1ccnc(C(=O)N[C@@H](Cc2ccccc2)C(=O)O[C@@H](C)[C@H](Oc2cccc(F)c2)c2ccccc2)c1OC(C)=O [Cmpd 577]
SEPTTR 1DP, LV activity at 125.1 g/H (% Control rating) (Zymoseptoria tritici; [1]): B (≤ 80)
SEPTTR 3DC, LV activity at 125.1 g/H (% Control rating) (Zymoseptoria tritici; [2]): D
PUCCRT 1DP, LV activity at 125.1 g/H (% Control rating) (Puccinia triticina; [1]): A (> 80)
PUCCRT 3DC, LV activity at 125.1 g/H (% Control rating) (Puccinia triticina; [2]): B (≤ 80)

CCC[C@@H](Oc1cccc(OC)c1)[C@H](C)OC(=O)[C@H](C)NC(=O)c1nccc(OC)c1OC(C)=O [Cmpd 1063]
LV activity at 125.1 g/H SEPTTR 1DP (disease control rating) (Zymoseptoria tritici; low volume application, 125.1 g/H, 1 Day Protectant, wheat leaf blotch): B (≤ 80)
LV activity at 125.1 g/H SEPTTR 3DC (disease control rating) (Zymoseptoria tritici; low volume application, 125.1 g/H, 3 Day Curative, wheat leaf blotch): A (> 80)
LV activity at 125.1 g/H PUCCRT 1DP (disease control rating) (Puccinia triticina; low volume application, 125.1 g/H, 1 Day Protectant, wheat brown rust): A (> 80)
LV activity at 125.1 g/H PUCCRT 3DC (disease control rating) (Puccinia triticina; low volume application, 125.1 g/H, 3 Day Curative, wheat brown rust): A (> 80)

COc1ccnc(C(=O)N[C@@H](C)C(=O)O[C@@H](C)[C@H](OC(=O)C(C)C)C(C)C)c1OCOC(C)=O [Cmpd 623]
SEPTTR 1DP, LV activity at 125.1 g/H (% Control rating) (Zymoseptoria tritici; [1]): D
SEPTTR 3DC, LV activity at 125.1 g/H (% Control rating) (Zymoseptoria tritici; [2]): B (≤ 80)
PUCCRT 1DP, LV activity at 125.1 g/H (% Control rating) (Puccinia triticina; [1]): A (> 80)
PUCCRT 3DC, LV activity at 125.1 g/H (% Control rating) (Puccinia triticina; [2]): A (> 80)

COc1ccnc(C(=O)N[C@@H](C)C(=O)O[C@@H](C)[C@H](Oc2ccc3ccccc3c2)C(C)C)c1OCOC(C)=O [Cmpd 622]
SEPTTR 1DP, LV activity at 125.1 g/H (% Control rating) (Zymoseptoria tritici; [1]): D
SEPTTR 3DC, LV activity at 125.1 g/H (% Control rating) (Zymoseptoria tritici; [2]): B (≤ 80)
PUCCRT 1DP, LV activity at 125.1 g/H (% Control rating) (Puccinia triticina; [1]): A (> 80)
PUCCRT 3DC, LV activity at 125.1 g/H (% Control rating) (Puccinia triticina; [2]): A (> 80)

CCCO[C@@H]([C@H](C)OC(=O)[C@H](C)NC(=O)c1nccc(OC)c1OC(C)=O)[C@H](CC)Oc1ccccc1 [Cmpd 511]
SEPTTR 1DP, LV activity at 125.1 g/H (% Control rating) (Zymoseptoria tritici; [1]): B (≤ 80)
SEPTTR 3DC, LV activity at 125.1 g/H (% Control rating) (Zymoseptoria tritici; [2]): A (> 80)
PUCCRT 1DP, LV activity at 125.1 g/H (% Control rating) (Puccinia triticina; [1]): A (> 80)
PUCCRT 3DC, LV activity at 125.1 g/H (% Control rating) (Puccinia triticina; [2]): A (> 80)

COc1ccnc(C(=O)N[C@@H](C)C(=O)O[C@@H](C)[C@H](Oc2ccc(C)cc2Cl)C2CCCC2)c1O [Cmpd 843, (S)-(1R,2S)-1-(2-chloro-4-methylphenoxy)-1-cyclopentylpropan-2-yl-2-(3-hydroxy-4-methoxypicolinamido)propanoate]
SEPTTR 1DP disease control rating, HV activity at 100 ppm (Zymoseptoria tritici): D
SEPTTR 3DC disease control rating, HV activity at 100 ppm (Zymoseptoria tritici): B (≤ 80)
PUCCRT 1DP disease control rating, HV activity at 100 ppm (Puccinia triticina): D
PUCCRT 3DC disease control rating, HV activity at 100 ppm (Puccinia triticina): D
